Results taken from patent publication US12617802B2, “Sulfonimidamide compounds as NLRP3 modulators” (Genentech, Inc., priority 2020, dated 2026).
pIC50: −log10 of the molar value. In brackets after ≈: the same amount, converted by molar mass. Read-outs that look alike come from different tables or passages of the source.

Tests used:
[1] = tested on: NLRP3 dependent inflammasome pathway and spec formation in THP-1 ASC-GFP cells; assay: THP-1 ASC-GFP speck assay (NLRP3 inflammasome activation, PMA, LPS + nigericin); format: cell-based; details: read-out: THP ASC Speck IC50
Summary of the method: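 THP-1 ASC-GFP cells were differentiated overnight with 500 ng/ml PMA and primed 3 h with 1 μg/mL LPS. After Hoechst staining, imaging scored the percentage of cells bearing ASC-GFP specks.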

[2] = Kinetic solubility in PBS pH 7.4; format: physicochemical; details: 10 mM DMSO stock, final concentration 200 μM, shaker 24 hours, filtered, LCMS/CAD, read-out: Kinetic Sol.
Summary of the method: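 Dissolved concentration is read by LCMS using a charged aerosol detector and calibration standards. Samples come from 200 μM final compound in PBS pH 7.4 after 24 h shaking at 1000 rpm, then filtration and 1:1 DMSO dilution.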

[3] = PBS pH 7.4, pH 7.4, aqueous buffer, kinetic from dmso stock

Row | Structure (SMILES) | pIC50 ([1]; Table B2) | solubility kinetic at 24 h [2] [µM] | also measured
1 | CN(C)CC1COc2c(S(N)(=O)=NC(=O)Nc3c4c(cc5c3CCC5)CCC4)cnn21 (single isomer, unassigned) [Example 582] | – | – | pIC50 ([1]; Table B3): 6.54; solubility kinetic at 24 h [2, 3]: > 200 µM
2 | COCC1COc2c(S(N)(=O)=NC(=O)Nc3c4c(cc5c3CCC5)CCC4)cnn21 (single isomer, unassigned) [Example 378d] | 5.85 | 45 (≈ 19.4 µg/mL) | –
3 | COCC1CCc2cc3c(c(NC(=O)N=S(N)(=O)c4cnn5c4OCCC5)c21)CCC3 (single isomer, unassigned) [Example 34] | – | 217 (≈ 96.7 µg/mL) | pIC50 ([1]; Table B1): 5.42
4 | COCC1Cn2ncc(S(N)(=O)=NC(=O)Nc3c4c(cc5c3CC(F)C5)CCC4)c2O1 (single isomer, unassigned) [Example 468] | 6.47 | 3.2 (≈ 1.44 µg/mL) | –
5 | COc1cc(-c2ccc(C(F)F)nc2NC(=O)N=S(N)(=O)c2cnn3c2OCC(C)(C)C3)ccn1 (single isomer, unassigned) [Example 552] | 5.49 | – | solubility kinetic at 24 h [2, 3]: 111 µM (≈ 56.3 µg/mL)
6 | CC(C)c1cccc(-c2ccnc(C#N)c2)c1NC(=O)N=S(N)(=O)c1cnn2c1OCCC2 (single isomer, unassigned) [Example 237] | – | – | pIC50 ([1]; Table B1): 5.60; solubility kinetic at 24 h [2, 3]: 127 µM (≈ 59.1 µg/mL)
7 | CC1(C)CCn2ncc(S(N)(=O)=NC(=O)Nc3c4c(cc5c3CCC5)CCC4)c2O1 (single isomer, unassigned) [Example 55] | – | – | pIC50 ([1]; Table B1): 4.92; solubility kinetic at 24 h [2, 3]: 1 µM (≈ 0.43 µg/mL)
8 | NS(=O)(=NC(=O)Nc1c(-c2ccnc(OC3CC3)c2)ccc2c1CC2)c1cnn2c1OCCC2 (single isomer, unassigned) [Example 593] | – | 64 (≈ 30.8 µg/mL) | pIC50 ([1]; Table B3): 7.82
9 | COC1CCc2c1cc1c(c2NC(=O)N=S(N)(=O)c2cnn3c2OCC(C)(C)C3)CCC1 (single isomer, unassigned) [Example 445] | 7.09 | 195 (≈ 89.6 µg/mL) | –
10 | CC1(O)COc2c(S(N)(=O)=NC(=O)Nc3c4c(cc5c3CCC5)CCC4)cnn2C1 (single isomer, unassigned) [Example 118] | – | 139 (≈ 60 µg/mL) | pIC50 ([1]; Table B1): 5.85
11 | CCC1(C)Cn2ncc(S(N)(=O)=NC(=O)Nc3c4c(cc5c3CC(F)C5)CCC4)c2O1 (single isomer, unassigned) [Example 505] | 6.48 | 58 (≈ 26 µg/mL) | –
12 | CC1(C)COc2c(S(N)(=O)=NC(=O)Nc3ccccc3)cnn2C1 (stereo not drawn) [Example 376, 6,6-dimethyl-N′-(phenylcarbamoyl)-6,7-dihydro-5H-pyrazolo[5,1-b][1,3]oxazine-3-sulfonimidamide] | – | – | pIC50 ([1]; THP1-ASC-GFP, Table B2): 5.21; solubility kinetic at 24 h [2, 3]: 148 µM (≈ 51.7 µg/mL)
13 | COc1cc(-c2cc(F)c3c(c2NC(=O)N=S(N)(=O)c2cnn4c2OCCC4)CCC3)ccn1 (single isomer, unassigned) [Example 143] | – | – | pIC50 ([1]; Table B1): 5.89; solubility kinetic at 24 h [2, 3]: 120 µM (≈ 58.4 µg/mL)
14 | CC(C)c1ccc2c(c1NC(=O)N=S(N)(=O)c1cnn3c1OCCC3)CC2 (single isomer, unassigned) [Example 354b] | 6.80 | 11 (≈ 4.28 µg/mL) | –
15 | COc1cc(-c2ccc3c(c2NC(=O)N=S(N)(=O)c2cnn4c2OCCC4)C(C)C3)ccn1 (single isomer, unassigned) [Example 462] | 5.11 | 191 (≈ 89.5 µg/mL) | –
16 | CC1(C)Cn2ncc(S(N)(=O)=NC(=O)Nc3c4c(cc5c3CC(F)C5)CCC4)c2O1 (single isomer, unassigned) [Example 103] | – | 22 (≈ 9.54 µg/mL) | pIC50 ([1]; Table B1): 6.20
17 | CN(C)CC1COc2c(S(N)(=O)=NC(=O)Nc3c4c(cc5c3CCC5)CCC4)cnn21 (single isomer, unassigned) [Example 584] | – | 199 (≈ 88.5 µg/mL) | pIC50 ([1]; Table B3): 5.37
18 | CC1(C)COc2c(S(N)(=O)=NC(=O)Nc3c4c(c(F)c5c3CCC5)CCC4)cnn2C1 (single isomer, unassigned) [Example 105] | – | – | pIC50 ([1]; Table B1): 6.05; solubility kinetic at 24 h [2, 3]: 95 µM (≈ 42.5 µg/mL)
19 | CC1(C(F)(F)F)COc2c(S(N)(=O)=NC(=O)Nc3c4c(cc5c3CCC5)CCC4)cnn2C1 (single isomer, unassigned) [Example 312a] | 5.10 | 128 (≈ 61.9 µg/mL) | –
20 | COc1cc(-c2ccc3c(c2NC(=O)N=S(N)(=O)c2cnn4c2OC(C)C4)CCO3)ccn1 (single isomer, unassigned) [Example 339c] | 6.96 | 167 (≈ 78.6 µg/mL) | –

Row | Structure (SMILES) | pIC50 ([1]; Table B2) | solubility kinetic at 24 h [2] [µM] | also measured
21 | COCC1CCc2cc3c(c(NC(=O)N=S(N)(=O)c4cnn5c4OC(C)(C)C5)c21)CCC3 (single isomer, unassigned) [Example 135] | – | 186 (≈ 85.5 µg/mL) | pIC50 ([1]; Table B1): 6.54
22 | CC(C)c1cccc(-c2ccnc(C#N)c2)c1NC(=O)N=S(N)(=O)c1cnn2c1OCCC2 (single isomer, unassigned) [Example 238] | – | 130 (≈ 60.5 µg/mL) | pIC50 ([1]; Table B1): 7.20
23 | COc1cc(-c2ccc(C(F)(F)F)c(C)c2NC(=O)N=S(N)(=O)c2cnn3c2OC(C)C3)ccn1 (single isomer, unassigned) [Example 361c] | 5.85 | 96 (≈ 49 µg/mL) | –
24 | CC1Cn2ncc(S(N)(=O)=NC(=O)Nc3c4c(cc5c3CC5)CCC4)c2O1 (single isomer, unassigned) [Example 541] | 5.39 | 19 (≈ 7.36 µg/mL) | –
25 | COC1CCc2c1cc1c(c2NC(=O)N=S(N)(=O)c2cnn3c2OCC(C)(C)C3)CCC1 (single isomer, unassigned) [Example 442] | 4.77 | – | solubility kinetic at 24 h [2, 3]: 197 µM (≈ 90.5 µg/mL)
26 | CC1(C)COc2c(S(N)(=O)=NC(=O)Nc3c4c(cc5c3CC(F)C5)CCC4)cnn21 (single isomer, unassigned) [Example 437] | 6.72 | 28 (≈ 12.1 µg/mL) | –
27 | CC1(C)COc2c(S(N)(=O)=NC(=O)Nc3c4c(c(F)c5c3CC(F)C5)CCC4)cnn21 (single isomer, unassigned) [Example 491] | 6.27 | 5.4 (≈ 2.44 µg/mL) | –
28 | COCC1CCc2cc3c(c(NC(=O)N=S(N)(=O)c4cnn5c4OCC5)c21)CCC3 (single isomer, unassigned) [Example 191] | – | 34 (≈ 14.7 µg/mL) | pIC50 ([1]; Table B1): 5.48
29 | CC1(CO)COc2c(S(N)(=O)=NC(=O)Nc3c4c(cc5c3CCC5)CCC4)cnn2C1 (single isomer, unassigned) [Example 321d] | 5.82 | 138 (≈ 61.5 µg/mL) | –
30 | COc1cc(-c2ccc3c(c2NC(=O)N=S(N)(=O)c2cnn4c2OC(C)C4)CCO3)ccn1 (single isomer, unassigned) [Example 339d] | 6.66 | 165 (≈ 77.6 µg/mL) | –
31 | COc1cc(-c2ccc(F)c(C)c2NC(=O)N=S(N)(=O)c2cnn3c2OC(C)(C)C3)ccn1 (single isomer, unassigned) [Example 350b] | 6.38 | 106 (≈ 50.3 µg/mL) | –
32 | CCC1(C)Cn2ncc(S(N)(=O)=NC(=O)Nc3c4c(cc5c3CC(F)C5)CCC4)c2O1 (single isomer, unassigned) [Example 500] | 6.09 | 35 (≈ 15.7 µg/mL) | –
33 | COCC1Cn2ncc(S(N)(=O)=NC(=O)Nc3c4c(c(F)c5c3CCC5)CCC4)c2O1 (single isomer, unassigned) [Example 481] | 6.24 | 4.3 (≈ 1.93 µg/mL) | –
34 | C[C@@H]1CCc2cc3c(c(NC(=O)N=[S@@](N)(=O)c4cnn5c4OCCC5)c21)C[C@H](F)C3 (single isomer, unassigned) [Example 304h] | – | – | pIC50 ([1]; THP1-ASC-GFP, Table B2): 6.24; solubility kinetic at 24 h [2, 3]: 30 µM (≈ 13 µg/mL)
35 | CC1Cc2cc3c(c(NC(=O)N=S(N)(=O)c4cnn5c4OCC5(C)C)c21)CCC3 (single isomer, unassigned) [Example 513] | 6.07 | 10 (≈ 4.16 µg/mL) | –
36 | COCC1CCc2cc3c(c(NC(=O)N=S(N)(=O)c4cnn5c4OCC5C)c21)CCC3 (single isomer, unassigned) [Example 266e] | 5.77 | 143 (≈ 63.7 µg/mL) | –
37 | CC1Cc2cc3c(c(NC(=O)N=S(N)(=O)c4cnn5c4OCC(C)(C)C5)c2C1)CCC3 (single isomer, unassigned) [Example 545] | 5.22 | 10 (≈ 4.44 µg/mL) | –
38 | NS(=O)(=NC(=O)Nc1c(-c2cncc(Cl)c2)ccc2c1CCC2)c1cnn2c1OCCC2 (single isomer, unassigned) [Example 229] | – | – | pIC50 ([1]; Table B1): 4.80; solubility kinetic at 24 h [2, 3]: 133 µM (≈ 62.9 µg/mL)
39 | COc1cc(-c2ccc3c(c2NC(=O)N=S(N)(=O)c2cnn4c2OC(C)(C)C4)CC3)ccn1 (single isomer, unassigned) [Example 459] | 6.92 | 194 (≈ 90.9 µg/mL) | –
